For assay [1], the target named is T1, Pro-cathepsin H (Homo sapiens) (UniProt P09668).
T1 sequence (whole entry): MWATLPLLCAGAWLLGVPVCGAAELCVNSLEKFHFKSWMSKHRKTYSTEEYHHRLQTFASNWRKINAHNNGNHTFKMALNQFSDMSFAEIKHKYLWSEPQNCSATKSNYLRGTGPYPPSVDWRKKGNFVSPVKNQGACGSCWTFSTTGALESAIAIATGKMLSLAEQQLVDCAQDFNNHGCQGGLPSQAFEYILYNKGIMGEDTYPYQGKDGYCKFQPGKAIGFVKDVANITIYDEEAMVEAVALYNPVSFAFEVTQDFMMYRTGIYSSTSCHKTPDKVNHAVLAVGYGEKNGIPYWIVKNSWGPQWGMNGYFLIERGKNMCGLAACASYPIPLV
The experiment in a line: Inhibition of Cathepsin H (unknown origin) at 0.25 x 10^-4 M.

Assay [2] concerns Staphylococcus aureus. Nature of the assay: Antibacterial activity against methicillin-resistant Staphylococcus aureus. It is filed as functional.
A further assay is filed under the species Mus musculus. The experiment in a line: Anticonvulsant activity in mouse assessed as protection against maximal electroshock-induced seizures. It counts as functional.
Assay [3] deals with Mycobacterium tuberculosis. The experiment in a line: Antimycobacterial activity against Mycobacterium tuberculosis H37Rv. It is filed as functional.
Another assay concerns Bacillus subtilis. Nature of the assay: Antibacterial activity against Bacillus subtilis. It is filed as functional.
The target in assay [4] is Epidermal growth factor receptor (Homo sapiens, UniProt P00533). Nature of the assay: Inhibition of EGFR (unknown origin).
Assay [5] in a line: Photocytotoxicity activity against human HL60 cells measured after UV irradiation. It is filed as functional. The note with it: HL-60, light or radiation study.
The next assay addresses T2, Dihydrofolate reductase (Homo sapiens, UniProt P00374).
T2 sequence (P00374 whole entry): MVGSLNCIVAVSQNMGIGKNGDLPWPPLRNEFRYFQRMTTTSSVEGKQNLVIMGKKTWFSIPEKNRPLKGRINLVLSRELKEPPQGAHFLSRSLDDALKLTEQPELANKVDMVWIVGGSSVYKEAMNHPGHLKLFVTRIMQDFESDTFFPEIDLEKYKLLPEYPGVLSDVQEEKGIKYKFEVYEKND
The experiment in a line: Inhibition of DHFR (unknown origin).

Assay [6] deals with HUVEC. The experiment in a line: Inhibition of cell adhesion in HUVEC at 15 uM after 3 hrs at 37 degC. It counts as functional. To be noted: Homo sapiens.
A short description of assay [7]: Cytotoxicity against human CNE2 cells by MTT assay. It counts as functional, cell-based. To be noted: CNE-2. For orientation: Tetrazolium dyes change colour on reduction, which living cells bring about.
Assay [8] relates to HUVEC. Nature of the assay: Inhibition of cell adhesion in HUVEC at 30 uM after 3 hrs at 37 degC. It counts as functional. To be noted: Homo sapiens.
Assay [9] can be described thus: Cytotoxicity against human PC3 cells by MTT assay. It counts as functional, cell-based. To be noted: PC-3.
A further assay concerns SMMC-7721. The experiment in a line: Cytotoxicity against human SMMC7721 cells by MTT assay. It counts as functional, cell-based.
Assay [10] is described as follows: Antiproliferative activity against human breast cancer cells. It counts as functional, cell-based. The note with it: Cancer cell lines.
Assay [11] is described as follows: Antiproliferative activity against human colon cancer cells. It counts as functional, cell-based. The note with it: Cancer cell lines.
Assay [12] in a line: Antiproliferative activity against human lung cancer cells. It is filed as functional, cell-based. The note with it: Cancer cell lines.
Assay [13] addresses Cathepsin B (Homo sapiens) (UniProt P07858). The experiment in a line: Inhibition of Cathepsin B (unknown origin) at 0.1 x 10^-4 M.
The target is the same in assay [14]. Nature of the assay: Inhibition of Cathepsin B (unknown origin) at 1 x 10^-4 M.
The target is the same in assay [15]. Nature of the assay: Inhibition of Cathepsin B (unknown origin) at 0.50 x 10^-4 M.
Assay [16] has as its system Bacillus cereus. The experiment in a line: Antibacterial activity against Bacillus cereus MTCC 430 assessed as zone of inhibition. It counts as functional.
Assay [17] has as its system Staphylococcus aureus. The experiment in a line: Antibacterial activity against Staphylococcus aureus MTCC 96. It counts as functional.
Assay [18] concerns Klebsiella pneumoniae. Nature of the assay: Antibacterial activity against Klebsiella pneumoniae MTCC 109 assessed as zone of inhibition. It counts as functional.
The test system of assay [19] is Staphylococcus aureus. The experiment in a line: Antibacterial activity against Staphylococcus aureus MTCC 96 assessed as zone of inhibition. It is filed as functional.
In a further assay the test system is Candida albicans. Nature of the assay: Antifungal activity against Candida albicans MTCC 183. It is filed as functional.
Assay [20] has as its system Pseudomonas aeruginosa. The experiment in a line: Antibacterial activity against Pseudomonas aeruginosa MTCC 741. It counts as functional.
In assay [21] the test system is Bacillus cereus. Nature of the assay: Antibacterial activity against Bacillus cereus MTCC 430. It is filed as functional.
Assay [22] has as its system Klebsiella pneumoniae. Nature of the assay: Antibacterial activity against Klebsiella pneumoniae MTCC 109. It is filed as functional.
For assay [23], the system named is Pseudomonas aeruginosa. Nature of the assay: Antibacterial activity against Pseudomonas aeruginosa MTCC 741 assessed as zone of inhibition. It is filed as functional.
Assay [24] is described as follows: Cytotoxicity against human PC3 cells assessed as inhibition of cell growth. It counts as functional, cell-based. The note with it: PC-3.
The next assay deals with Saccharomyces cerevisiae. Nature of the assay: Antifungal activity against Saccharomyces cerevisiae. It counts as functional.
Assay [25] concerns Escherichia coli. Nature of the assay: Antibacterial activity against Escherichia coli MTCC 739. It is filed as functional.
Assay [26] has as its target T1, Pro-cathepsin H (Homo sapiens). Nature of the assay: Inhibition of Cathepsin H (unknown origin) at 1 x 10^-4 M.
Assay [27] relates to Escherichia coli. Nature of the assay: Antibacterial activity against Escherichia coli assessed as zone of inhibition. It counts as functional.
The test system of assay [28] is Staphylococcus aureus. Nature of the assay: Antibacterial activity against Staphylococcus aureus assessed as zone of inhibition. It is filed as functional.

The structures appear in SMILES notation. ≈ marks a conversion by molar mass, not a printed value.

Sequence of Epidermal growth factor receptor (P00533 whole entry): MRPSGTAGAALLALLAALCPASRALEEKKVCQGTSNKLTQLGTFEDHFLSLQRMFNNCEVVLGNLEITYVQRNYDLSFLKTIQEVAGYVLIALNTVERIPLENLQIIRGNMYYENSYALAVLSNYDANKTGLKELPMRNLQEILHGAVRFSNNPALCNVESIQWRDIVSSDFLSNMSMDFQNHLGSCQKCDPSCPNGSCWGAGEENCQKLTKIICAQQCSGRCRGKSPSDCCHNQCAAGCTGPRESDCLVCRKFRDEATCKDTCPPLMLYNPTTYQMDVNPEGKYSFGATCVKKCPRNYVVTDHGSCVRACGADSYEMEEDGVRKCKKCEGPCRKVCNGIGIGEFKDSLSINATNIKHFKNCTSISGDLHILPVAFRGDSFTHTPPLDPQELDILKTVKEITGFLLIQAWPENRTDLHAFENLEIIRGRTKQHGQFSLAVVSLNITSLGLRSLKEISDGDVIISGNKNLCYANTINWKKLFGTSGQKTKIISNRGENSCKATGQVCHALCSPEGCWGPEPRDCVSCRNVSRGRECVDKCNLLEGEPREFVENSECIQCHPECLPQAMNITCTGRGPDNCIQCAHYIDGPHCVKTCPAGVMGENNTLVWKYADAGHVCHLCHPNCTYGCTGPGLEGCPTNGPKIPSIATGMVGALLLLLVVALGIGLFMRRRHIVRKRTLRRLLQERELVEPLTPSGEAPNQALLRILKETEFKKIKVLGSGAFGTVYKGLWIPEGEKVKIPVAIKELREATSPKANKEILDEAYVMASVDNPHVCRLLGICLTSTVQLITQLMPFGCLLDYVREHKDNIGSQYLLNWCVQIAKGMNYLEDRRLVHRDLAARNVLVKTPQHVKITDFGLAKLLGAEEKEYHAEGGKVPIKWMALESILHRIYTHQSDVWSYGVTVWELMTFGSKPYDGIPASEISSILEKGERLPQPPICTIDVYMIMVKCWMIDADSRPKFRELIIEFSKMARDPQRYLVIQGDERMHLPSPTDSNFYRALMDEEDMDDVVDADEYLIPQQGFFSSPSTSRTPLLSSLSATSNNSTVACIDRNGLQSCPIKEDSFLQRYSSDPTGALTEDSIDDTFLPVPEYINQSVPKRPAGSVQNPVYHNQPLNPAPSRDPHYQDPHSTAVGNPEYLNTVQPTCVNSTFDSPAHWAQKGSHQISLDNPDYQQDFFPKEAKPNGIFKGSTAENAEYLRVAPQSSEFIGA

`CN(C)c1ccc(/C=C2\CCCC3=C2NC(=S)NC3c2ccc(N(C)C)cc2)cc1` (centres undefined) had an inhibition in assay [1] of 100%. Turning to `Cn1c(=O)n(CCOC(=O)CNC(=O)c2ccc([N+](=O)[O-])cc2)c(=O)c2ccccc21`, the MIC with Staphylococcus aureus [2] is 4 µg/mL (≈ 9.38 µM). As for `COc1cc2nc(/C=C/c3ccccc3Cl)n(-c3ccccc3[N+](=O)[O-])c(=O)c2cc1OC`, the ED50 in the assay listed under Mus musculus was found to be 98.2 µmol/kg.

For `Cc1cccc(Oc2nc(-c3ccc(NC(=S)Nc4ccc(Br)cc4)cc3)nc3ccccc23)c1`, the “inhibition (INH)” value in [3] worked out at 99%. The compound also came in with an MIC in [3] (Mycobacterium tuberculosis, H37Rv) of 12.5 µg/mL (≈ 23.1 µM). In the assay on Bacillus subtilis, `CN[C@@H]1[C@H](O[C@H]2[C@H](O[C@H]3[C@H](O)[C@@H](O)[C@H](N=C(N)N)[C@@H](O)[C@@H]3N=C(N)N)O[C@@H](C)[C@]2(O)C=O)O[C@@H](CO)[C@H](O)[C@H]1O` [STREPTOMYCIN] registered an MIC of 32 µg/mL (≈ 55 µM). `Clc1cc(Nc2ncnc3ccc(NC4=NC[C@@H](COc5ccccc5)O4)cc23)ccc1OCc1nccs1` showed a concentration for half-maximal inhibition (IC50) in assay [4] of 950 nM. With `CC1(C)CC(=O)C2=C(C1)N=C1Sc3ccccc3N1C2c1ccc(C(F)(F)F)cc1` (centres undefined), growth in [5] was halved (GI50) at 900 nM.

Compound `COc1ccc(/C=C2\CCCc3c2nc(C)nc3-c2ccc(OC)c(OC)c2)cc1OC` returned an IC50 against Dihydrofolate reductase of 100 nM. Take `CC1(C)CC(=O)C2=C(C1)N=C1Sc3ccccc3N1C2c1ccccc1C(F)(F)F` (centres undefined): growth in assay [5] was halved (GI50) at 900 nM. In other words, the sub-micromolar range.

`COc1ccc(/C=C2\CCCc3c2nc(N)nc3-c2ccc(OC)c(OC)c2)cc1OC` came in with an IC50 against Dihydrofolate reductase of 14000 nM.

The compound `COc1cc(/C=C2\CCCc3c2nc(N)nc3-c2cc(OC)c(OC)c(OC)c2)cc(OC)c1OC` gave an IC50 at Dihydrofolate reductase of 14000 nM. With `COc1ccc(C(=O)NCC(=O)OCCn2c(=O)c3ccccc3n(C)c2=O)cc1`, the MIC against Bacillus subtilis amounted to 4 µg/mL (≈ 9.72 µM). `Cn1c(=O)n(CCOC(=O)CNC(=O)c2ccc(F)cc2)c(=O)c2ccccc21` came in with an MIC against Staphylococcus aureus [2] of 4 µg/mL (≈ 10 µM). `COc1cc2nc(/C=C/c3ccccc3Cl)n(-c3ccncc3)c(=O)c2cc1OC`: the ED50 in the assay filed under Mus musculus stood at 66.4 µmol/kg. `CN(C)CCCNc1nc(-c2ccccc2NC(=O)CCN2CCN(C)CC2)nc2ccccc12`: in the assay with HUVEC [6], the inhibition at 15 µM was found to be 65.8%. Besides, the figures for the IC50 (in assay [7]; in assay [9]; with SMMC-7721) were 9300 nM, 9800 nM and 10900 nM, respectively. Further, the inhibition at 30 µM in the assay on HUVEC [8] was determined as 71.2%. `O=c1c2ccccc2ncn1/N=C/c1ccc(O)c(O)c1O`: the IC50 stood at 140 nM in assay [10], 320 nM in [11] and 79 nM in assay [12]. For `Cn1c(=O)n(CCOC(=O)CNC(=O)c2ccco2)c(=O)c2ccccc21`, in the assay with Bacillus subtilis, the MIC worked out at 4 µg/mL (≈ 10.8 µM).

For the compound `O=C1NC2=C(CCC/C2=C\C=C\c2ccccc2)C(/C=C/c2ccccc2)N1` (centres undefined), the inhibition is 50% in assay [13] and 100% in assay [14].

As to `S=C1NC2=C(CCC/C2=C\C=C\c2ccccc2)C(/C=C/c2ccccc2)N1` (centres undefined), the inhibition in [15] was 100%.

On to `COc1cc(/C=C2\CCCc3c2nc(C)nc3-c2cc(OC)c(OC)c(OC)c2)cc(OC)c1OC`, for which the IC50 against Dihydrofolate reductase came to 500 nM.

With `Cc1cccc(Oc2nc(-c3ccc(NC(=O)Nc4ccc(Br)cc4)cc3)nc3ccccc23)c1`, the “inhibition zone (IZ)” value with Bacillus cereus [16] is 26 mm; in the assay on Klebsiella pneumoniae [18], 27 mm; in the assay with Staphylococcus aureus [19], 29 mm; in the assay on Pseudomonas aeruginosa [23], 25 mm. The MIC against Staphylococcus aureus [17] turned out to be 6.25 µg/mL (≈ 11.9 µM); against Candida albicans it was 12.5 µg/mL (≈ 23.8 µM); against Pseudomonas aeruginosa [20] it was 25 µg/mL (≈ 47.6 µM); with Bacillus cereus [21], 12.5 µg/mL (≈ 23.8 µM); in the assay with Klebsiella pneumoniae [22], 12.5 µg/mL (≈ 23.8 µM).

Turning to `CC[C@@]1(O)C(=O)OCc2c1cc1n(c2=O)Cc2cc3c(CN(C)C)c(O)ccc3nc2-1` [TOPOTECAN], the IC50 in assay [24] was below 4000 nM. Take `COc1cc2nc(/C=C/c3ccccc3Cl)n(-c3ccc(Br)cc3)c(=O)c2cc1OC`: the median effective dose (ED50) in the assay filed under Mus musculus was 41.3 µmol/kg. On the same count and under the same terms, with `COc1cc2nc(/C=C/c3ccccc3Cl)n(-c3ccc([N+](=O)[O-])cc3)c(=O)c2cc1OC` the figure was 41.3 µmol/kg. Turning to `Cn1c(=O)n(CCOC(=O)CNC(=O)/C=C/c2ccccc2)c(=O)c2ccccc21`, the MIC in the assay on Bacillus subtilis and against Staphylococcus aureus [2] was 4 µg/mL (≈ 9.82 µM) in each case. For the compound `O=c1c2ccccc2nc(-c2ccc(Cl)cc2)n1Cc1ccccc1`, the MIC in the assay on Staphylococcus aureus [17] was found to be 25.6 µg/mL (≈ 73.8 µM); against Bacillus subtilis, 24.3 µg/mL (≈ 70.1 µM); in the assay on Candida albicans, 26.1 µg/mL (≈ 75.3 µM); against Pseudomonas aeruginosa [20], 30.1 µg/mL (≈ 86.8 µM); in the assay with Saccharomyces cerevisiae, 18.3 µg/mL (≈ 52.8 µM); in the assay on Escherichia coli [25], 25.1 µg/mL (≈ 72.4 µM). Take `CN(C)c1ccc(/C=C2\CCCC3=C2NC(=O)NC3c2ccc(N(C)C)cc2)cc1` (centres undefined): the inhibition in assay [26] was 100%. Take `Oc1ccc(/C=N/NC2=NC3=C(CCCC3)C(c3ccccc3)N2)cc1` (centres undefined): the “inhibition zone (IZ)” value with Escherichia coli [27] is given as 17 mm; in the assay on Staphylococcus aureus [28], 18 mm. `C[Se](=O)O` [METHYLSELENINIC ACID]: the IC50 in assay [24] is below 8400 nM. In [5], `CC1(C)CC(=O)C2=C(C1)N=C1Sc3ccccc3N1C2c1ccc(F)cc1` (centres undefined) yielded a GI50 of 900 nM. `Clc1cc(Nc2ncnc3ccc(NC4=NC[C@H](COc5ccccc5)O4)cc23)ccc1OCc1nccs1` returned an IC50 in assay [4] of 1210 nM.

In general, inhibition refers to the drop in the measured response relative to a control, in per cent. A lower inhibition goes with little suppression. As usually defined, the MIC is the lowest concentration that inhibits growth of the organism. By ED50 is commonly meant the dose that gives a 50% effect, or the effect in half of the subjects. One may read the IC50 as the concentration that inhibits the measured activity by half. Usually GI50 stands for the concentration that inhibits growth by half. A low value points to greater sensitivity of the cells.

(Values after ChEMBL document CHEMBL3396974, “Synthetic approaches, functionalization and therapeutic potential of quinazoline and quinazolinone skeletons: the advances continue” (Eur J Med Chem, 2015).)
